Patent publication EP1295874A2, “Retroviral protease inhibiting compounds” (Abbott Laboratories, priority 1995, dated 1997)
Read-outs that look alike come from different tables or passages of the source.

How the values were obtained:
[1] = molecular target: T1, HIV protease (Human immunodeficiency virus type 1 group M subtype B, UniProt P04585); test: Fluorogenic Assay for Screening Inhibitors of HIV Protease; type: biochemical; conditions: Inhibitor Concentration 0.5 nanomolar; read-out: Percent Inhibition
T1 construct: HIV protease consists of two identical subunits, each of which has 99 amino acid residues
Experimental: The inhibitory potency of the compound of the invention can be determined by the following method.
The compound of the invention is dissolved in DMSO and a small aliquot further diluted with DMSO to 100 times the final concentration desired for testing. The reaction is carried out in a 6 X 50 mm tube in a total volume of 300 microliters. The final concentrations of the components in the reaction buffer are: 125 mM sodium acetate, 1 M sodium chloride, 5 mM dithiothreitol, 0.5 mg/ml bovine serum albumin, 1.3 µM fluorogenic substrate, 2% (v/v) dimethylsulfoxide, pH 4.5. After addition of inhibitor, the reaction mixture is placed in the fluorometer cell holder and incubated at 30°C for several minutes. The reaction is initiated by the addition of a small aliquot of cold HIV protease. The fluorescence intensity (excitation 340 nm, emmision 490 nM) is recorded as a function of time. The reaction rate is determined for the first six to eight minutes. The observed rate is directly proportional to the moles of substrate cleaved per unit time. The percent inhibition is 100 X (1 - (rate in presence of inhibitor)/(rate in absence of inhibitor)).
Fluorogenic substrate: Dabcyl-Gaba-Ser-Gln-Asn-Tyr-Pro-lle-Val-Gln-EDANS wherein DABCYL = 4-(4-dimethylamino-phenyl)azobenzoic acid, Gaba = γ-aminobutyric acid, and EDANS = 5-((2-aminoethyl)amino)-naphthalene-1-sulfonic acid.

[2] = tested on: HIVIIIB; test: Antiviral activity (anti-HIV activity) in MT4 cells, MTT readout; type: cell-based; conditions: Human immunodeficiency virus 1, MT4, 120 h, read-out: IC50 (µM, 0% plasma)
Excerpt: (§1) The anti-HIV activity of the compound of the invention can be determined in MT4 cells according to the following procedure. MT4 cells were infected with cell-free supernatant of HIVIIIB (previously frozen with known 50% tissue culture infectious dose (TCID50) at 0.003 multiplicity of infection (MOI) for one hour. After one hour infection, cells were washed twice to remove residual viruses, resuspended in culture media and seeded into 96-well tissue culture plates at 1x10^4 cells per well with various half-log dilutions of compounds. Uninfected cells are included as toxicity and cell controls. RPMI 1640 media (Gibco ) with 10% fetal bovine serum were used as culture media. Various concentrations of human serum (Sigma) 50%, 25% and 12.5% were added to culture media resulting in final concentration of 60%, 35% and 22.5% total serum. All assay plates were incubated in 37 deg. cent. incubator for 5 days. MTT (sigma, 5 mg/ml stock in PBS) was added to all wells at 25 ul per well, incubate for 4 hours. 20%SDS with 0.02 N HCl in water was added at 50 ul per well to lyse cellls. Plates incubated overnight for complete lyses were read on a microtitre plate reader at 570/650 nm wavelengths to determine cell optical density (O.D.). Raw data were analysed for percent inhibition by the following formula: (O.D. test well - O.D. virus control)/(O.D. cell control -O.D. virus control)x100 [formula] The 50% effective concentration (EC50) was calculated by the median effect equation (Chou, 1975,Proc. Int. Cong. Pharmacol. 6th p. 619) to determine the efficacy of compound. The 50% lethal concentration (LC50) was calculated using uninfected MT4 cells.
(§2) Under these conditions, the following data were obtained (n = 4 duplicate determinations: Table 2

[3] = 50% lethal concentration in uninfected MT4 cells (MTT); type: cell-based; conditions: human, read-out: LC50
Excerpt: as §1, §2

[4] = tested on: Passaged HIV-1; test: Phenotypic susceptibility of in vitro passaged HIV-1 to the compound of Example 2B (MTT colorimetric assay); type: cell-based
[5] = tested on: HIV Selected In Vitro by the Compound of Example 2B; test: microbe, parasite or virus in culture; type: cell-based
[6] = tested on: Ritonavir-Resistant Mutant HIV Clones; test: microbe, parasite or virus in culture; type: cell-based
[7] = tested on: Ritonavir-Resistant HIV from Patients; test: microbe, parasite or virus in culture; type: cell-based

## Cc1cccc(C)c1OCC(=O)N[C@@H](Cc1ccccc1)[C@@H](O)C[C@H](Cc1ccccc1)NC(=O)[C@H](C(C)C)N1CCCNC1=O [Example 2B, (2S, 3S, 5S)-2-(2,6-Dimethylphenoxyacetyl) amino-3-hydroxy-5-[2S-(1-tetrahydro-pyrimid-2-onyl)-3-methylbutanoyl] amino-1,6-diphenylhexane]
[1]
  inhibition at 0.0005 µM: 93.2%
[2]
  IC50: 0.016 µM
[3]
  CC50 at 120 h: 17800 nM
[4]; Human immunodeficiency virus 1, 384 h, read-out: The compound of Example 2B EC50 (µM), Virus P2 (selected at 0.02 µM, 16 days in culture)
  EC50: 0.025 µM
[4]; Human immunodeficiency virus 1, NL43, read-out: The compound of Example 2B EC50 (µM), Virus NL4-3
  EC50: 0.028 µM
[4]; Human immunodeficiency virus 1, read-out: The compound of Example 2B EC50 (µM), Virus P6 (selected at 0.12 µM, 58 days in culture)
  EC50: 0.149 µM
[4]; Human immunodeficiency virus 1, read-out: The compound of Example 2B EC50 (µM), Virus P7 (selected at 0.15 µM, 65 days in culture)
  EC50: 0.201 µM
[4]; Human immunodeficiency virus 1, read-out: The compound of Example 2B EC50 (µM), Virus P8 (selected at 0.21 µM, 75 days in culture)
  EC50: 0.295 µM
[4]; Human immunodeficiency virus 1, read-out: The compound of Example 2B EC50 (µM), Virus P9 (selected at 0.30 µM, 82 days in culture)
  EC50: 0.333 µM
[4]; Human immunodeficiency virus 1, read-out: The compound of Example 2B EC50 (µM), Virus P10 (selected at 0.30 µM, 93 days in culture)
  EC50: 0.464 µM
[4]; Human immunodeficiency virus 1, read-out: The compound of Example 2B EC50 (µM), Virus P11 (selected at 0.42 µM, 100 days in culture)
  EC50: 0.346 µM
[4]; Human immunodeficiency virus 1, read-out: The compound of Example 2B EC50 (µM), Virus P12 (selected at 0.62 µM, 107 days in culture)
  EC50: 0.291 µM
[4]; Human immunodeficiency virus 1, read-out: The compound of Example 2B EC50 (µM), Virus P13 (selected at 0.80 µM, 114 days in culture)
  EC50: 1 µM
[4]; Human immunodeficiency virus 1, read-out: The compound of Example 2B EC50 (µM), Virus P14 (selected at 1.10 µM, 121 days in culture)
  EC50: 1.11 µM
[4]; Human immunodeficiency virus 1, read-out: The compound of Example 2B EC50 (µM), Virus P15 (selected at 1.50 µM, 128 days in culture)
  EC50: 1.34 µM
[4]; Human immunodeficiency virus 1, read-out: The compound of Example 2B EC50 (µM), Virus P16 (selected at 2.00 µM, 135 days in culture)
  EC50: 1.43 µM
[5]; Human immunodeficiency virus 1, NL43, Virus NL4-3
  EC50: 28 nM
[5]; Human immunodeficiency virus 1, Virus P7
  EC50: 116 nM
[5]; Human immunodeficiency virus 1, Virus P11
  EC50: 349 nM
[5]; Human immunodeficiency virus 1, Virus P14
  EC50: 1280 nM
[5]; Human immunodeficiency virus 1, Virus P17
  EC50: 9480 nM
[6]; Human immunodeficiency virus 1, HXB2, Virus Clone Wild Type (HXB2), 0% Human Serum
  EC50: 12 nM
[6]; Human immunodeficiency virus 1, HXB2, Virus Clone Wild Type (HXB2), 50% Human Serum
  EC50: 51 nM
[6]; Human immunodeficiency virus 1, Virus Clone E35D, M36I, I54V, A71V, V82T, 0% Human Serum
  EC50: 83 nM
[6]; Human immunodeficiency virus 1, Virus Clone E35D, M36I, I54V, A71V, V82T, 50% Human Serum
  EC50: 691 nM
[6]; Human immunodeficiency virus 1, Virus Clone G48V, 0% Human Serum
  EC50: 8 nM
[6]; Human immunodeficiency virus 1, Virus Clone G48V, 50% Human Serum
  EC50: 156 nM
[6]; Human immunodeficiency virus 1, Virus Clone I54V, V82T, 0% Human Serum
  EC50: 213 nM
[6]; Human immunodeficiency virus 1, Virus Clone I54V, V82T, 50% Human Serum
  EC50: 1150 nM
[6]; Human immunodeficiency virus 1, Virus Clone I84V, 0% Human Serum
  EC50: 20 nM
[6]; Human immunodeficiency virus 1, Virus Clone I84V, 50% Human Serum
  EC50: 170 nM
[6]; Human immunodeficiency virus 1, Virus Clone K20R, E35D, M36I, I54V, A71V, V82T, 0% Human Serum
  EC50: 93 nM
[6]; Human immunodeficiency virus 1, Virus Clone K20R, E35D, M36I, I54V, A71V, V82T, 50% Human Serum
  EC50: 376 nM
[6]; Human immunodeficiency virus 1, Virus Clone L90M, 0% Human Serum
  EC50: 16 nM
[6]; Human immunodeficiency virus 1, Virus Clone L90M, 50% Human Serum
  EC50: 180 nM
[6]; Human immunodeficiency virus 1, Virus Clone V82A, 0% Human Serum
  EC50: 33 nM
[6]; Human immunodeficiency virus 1, Virus Clone V82A, 50% Human Serum
  EC50: 268 nM
[6]; Human immunodeficiency virus 1, Virus Clone V82F, 0% Human Serum
  EC50: 26 nM
[6]; Human immunodeficiency virus 1, Virus Clone V82F, 50% Human Serum
  EC50: 147 nM
[6]; Human immunodeficiency virus 1, Virus Clone V82S, 0% Human Serum
  EC50: 26 nM
[6]; Human immunodeficiency virus 1, Virus Clone V82S, 50% Human Serum
  EC50: 314 nM
[6]; Human immunodeficiency virus 1, Virus Clone V82T, 50% Human Serum
  EC50: 147 nM
[6]; Human immunodeficiency virus 1, Virus Clone Wild Type (pNL4-3), 0% Human Serum
  EC50: 22 nM
[6]; Human immunodeficiency virus 1, Virus Clone Wild Type (pNL4-3), 50% Human Serum
  EC50: 126 nM
[7]; Human immunodeficiency virus 1, 24 h, Patient No. 313, Day 1, baseline
  EC50: 4 nM
[7]; Human immunodeficiency virus 1, 24 h, Patient No. 410, Day 1, baseline
  EC50: 6 nM
[7]; Human immunodeficiency virus 1, 504 h, Patient No. 104, Day 21, V82A
  EC50: 9 nM
[7]; Human immunodeficiency virus 1, 672 h, Patient No. 104, Day 28, V82T
  EC50: 13 nM
[7]; Human immunodeficiency virus 1, Patient No. 104, Day -1, baseline
  EC50: 8 nM
[7]; Human immunodeficiency virus 1, Patient No. 129, Day 84, M36I, I54V, A71V, V82T
  EC50: 33 nM
[7]; Human immunodeficiency virus 1, Patient No. 129, Day 140, K20K/R, M36M/I, I54V, A71A/V, V82T
  EC50: 29 nM
[7]; Human immunodeficiency virus 1, Patient No. 129, Day -1, baseline
  EC50: 5 nM
[7]; Human immunodeficiency virus 1, Patient No. 131, Day 88, M36I, 154V>I, V82A
  EC50: 15 nM
[7]; Human immunodeficiency virus 1, Patient No. 131, Day 200, K20K/R, M36I, I54I/V, V82A
  EC50: 52 nM
[7]; Human immunodeficiency virus 1, Patient No. 131, Day -28, baseline
  EC50: 4 nM
[7]; Human immunodeficiency virus 1, Patient No. 224, Day 110, L33L/F, V82T/S
  EC50: 12 nM
[7]; Human immunodeficiency virus 1, Patient No. 224, Day 190, K20K/N/R, L33L/F, M36M/I, I54V/M, V82S
  EC50: 52 nM
[7]; Human immunodeficiency virus 1, Patient No. 224, Day -6, baseline
  EC50: 6 nM
[7]; Human immunodeficiency virus 1, Patient No. 235, Day 167, I54I/V, A71V, V82A. L90L/M
  EC50: 6 nM
[7]; Human immunodeficiency virus 1, Patient No. 235, Day -1, baseline
  EC50: 6 nM
[7]; Human immunodeficiency virus 1, Patient No. 313, Day 57, M36M/I, V82F
  EC50: 11 nM
[7]; Human immunodeficiency virus 1, Patient No. 313, Day 85, M36M/I, I54I/V, V82S/F/A/T
  EC50: 25 nM
[7]; Human immunodeficiency virus 1, Patient No. 410, Day 57, M36M/I, I54I/V, V82A
  EC50: 33 nM
[7]; Human immunodeficiency virus 1, Patient No. 410, Day 85, M36I, I54V, V82A
  EC50: 97 nM
